In ChEMBL document CHEMBL1149062, “A Sesquiterpene Quinone and Hydroquinone from the Southern Australian Marine Sponge, Thorecta choanoides” (J Nat Prod, 1994) one finds Activity data, which are given here for two compounds.

The source made the active and inactive calls. The rule behind the calls is not given here.

The experiment relates to Human immunodeficiency virus. The experiment can be described thus: Antiviral activity against HIV assessed as inhibition of viral replication. In kind it is functional, organism-based.

As for `COc1cc(O)cc(C/C=C(\C)CC/C=C(\C)CCC=C(C)C)c1O`, the result was inactive.

Take `COC1=CC(=O)C=C(C/C=C(\C)CC/C=C(\C)CCC=C(C)C)C1=O`: the outcome was inactive.
